From US20200055871A1, “ACTIVATORS OF THE RETINOIC ACID INDUCIBLE GENE "RIG-I" PATHWAY AND METHODS OF USE THEREOF” (Kineta Immuno-Oncology LLC, priority 2018, published 2020)

Key:
[1] = system: IRF3-deficient THP1-Lucia™ ISG IRF3−/− cells; assay: THP1-Lucia ISG IRF3−/− reporter assay (IRF3-deficient control cells); format: cell-based, human; settings: compound 5 to 20 μM, 18 h
Experimental: (§1) The promoter was comprised of five IFN-stimulated response elements (ISRE) fused to an ISG54 minimal promoter which is unresponsive to NF-kB or AP-1 pathways. […] The IRF3-deficient THP1-Lucia™ ISG IRF3−/−reporter cell line was generated by CRISPR technology from the parent THP1-Lucia™ ISG reporter cell line.
(§2) THP1-Lucia™ ISG cells and IRF3-deficient THP1-Lucia™ ISG IRF3−/−cells were differentiated with PMA (100 ng/ml) and stimulated with compounds at the indicated concentrations (5 to 20 μM), positive control, or not treated (background). Luciferase secretion was quantified using the QUANTI-Luc luciferase assay system (InvivoGen) 18 h after stimulation. Data are shown as fold increase luciferase activity over background in Table 7 and represent the IRF3-dependent ISG54 promoter activity by the THP1-Lucia™ ISG cells in response to compounds. […] The fold increase of compounds (10 μM, *20 μM, **5 μM) induced IRF3 dependent luciferase activity is indicated as follows: “≠” indicates less than 2.4 fold increase; “+” indicates a 2.4-4.9 fold increase; “++” indicates a 5-9.9 fold increase; “+++” indicates a 10-19 fold increase; “++++” indicates a 20-39 fold increase; “+++++” indicates greater than or equal to 40 fold increase.

[2] = system: RIG-I deficient CT26 RIG-I−/− cells; assay: CXCL10 secretion by RIG-I deficient CT26 RIG-I−/− cells (ELISA); format: cell-based, murine; settings: compound 5 to 20 μM, 24 h
Experimental: (§3) The CT26 murine colon carcinoma cell line (ATCC) was used to evaluate the induction of CXCL10 secretion. CXCL10 is an important chemokine in tumor immune biology that recruits tumor-specific T cells to the tumor. To confirm that compound-mediated CXCL10 production was RIG-I specific, RIG-1 deficient CT2-RIG-I−/−cells were generated by Kineta Inc. using CRISPR technology.
(§4) CT26 cells were seeded at a density of 1×10^4 cells per well on a 96-well tissue culture plate in 100 μL of cell culture and cells were incubated at 37° C. and 5% CO2 for 24 hr. Next, CT26 cells were treated with compounds at the indicated concentrations. CXCL10 was quantified by ELISA from supernatants taken 24 h after compound stimulation by use of the CXCL10 Duo Set ELISA kit (Cat #DY466, R&D, Minneapolis, Minn., USA) according to the manufacturer's instructions.
(§5) CXCL10 secretion by CT26 cells in response to compounds (in an amount of 5 to 20 μM) of the present disclosure is shown in Table 8. The compound-induced CXCL10 production was RIG-I dependent, since none of the compounds mediated CXCL10 secretion in RIG-I deficient CT26 RIG-I−/−cells (about 0 pg/mL of CXCL10, or below the level of quantitation). The compounds (10 μM, *20 μM, **5 μM) are indicated in the table as follows: “≠” indicates less than 100 pg/mL; “+” indicates 100-199 pg/mL; “++” indicates 200-399 pg/mL; “+++” indicates 400-799 pg/mL; “++++” indicates 800 to 1599 pg/mL; “+++++” indicates greater than or equal to 1600 pg/ml.

[3] = system: IRF3 signaling pathway in THP1-Lucia™ ISG cells; assay: THP1-Lucia ISG reporter assay: induction of IRF3-dependent gene expression (secreted luciferase); format: cell-based, human; settings: PMA-differentiated cells, 18 h after stimulation; for fold induction at 10 µM: Homo sapiens, THP1-Lucia ISG, read-out: fold increase of IRF3-dependent luciferase activity over background, THP1 ISG
Experimental: The compounds were evaluated in the THP1-Lucia™ ISG (interferon stimulated genes) reporter assay to determine if the compounds activate the IRF3 signaling pathway. The THP1-Lucia™ cells (InvivoGen) express the secreted luciferase (Lucia) reporter gene under the control of an IRF-inducible promoter. The reporter cell line was developed from human monocytic leukemia THP-1 cells.
as §1, §2

[4] = system: murine CT26 colon carcinoma cells; assay: RIG-I dependent CXCL10 secretion by CT26 cells (ELISA); format: cell-based; settings: supernatant 24 h after stimulation
Experimental: as §3, §4, §5

| Molecule | fold increase of luciferase activity, THP1 ISG IRF3−/− [1] | CXCL10 secretion, CT26 RIG-I−/− [2] | CXCL10 secretion, CT26 ([4]; 10 μM compound) | fold induction at 10 µM ([3]; 10 μM compound) | also measured |
| --- | --- | --- | --- | --- | --- |
| O=C(Nc1cc2ccc3scnc3c2o1)c1cc2ccccc2cc1OCCCCN1CCOCC1 [Example 56, 3-[4-(morpholin-4-yl)butoxy]-N-{12-oxa-5-thia-3-azatricyclo [7.3.0.0^2,^6]dodeca-1,3,6,8,10-pentaen-11-yl}naphthalene-2-carboxamide] | − (less than 0.5 fold above baseline was considered below the level of quantitation) | − | +++ (400-799 pg/mL) |  | fold increase of IRF3-dependent luciferase activity over background, THP1 ISG ([3]; 10 μM compound): + (a 2.4-4.9 fold increase) |
| Cn1c(C(=O)Nc2cc3ccc4scnc4c3s2)cc2ccccc21 [Example 60, N-{5,12-dithia-3-azatricyclo[7.3.0.0^2,^6]dodeca-1,3,6,8,10-pentaen-11-yl}-1-methyl-1H-indole-2-carboxamide] | − (less than 0.5 fold above baseline was considered below the level of quantitation) | − |  |  | fold increase of IRF3-dependent luciferase activity over background, THP1 ISG ([3]; 20 μM compound (*)): +* (a 2.4-4.9 fold increase); CXCL10 secretion, CT26 ([4]; 20 μM compound (*)): +* (100-199 pg/mL) |
| [N-(7-hydroxybenzo[1,2-d:3,4-d′]bis(thiazole)-2-yl)-3-(4-morpholinobutoxy)-2-naphthamide hydrochloride] [Example 44] | − (less than 0.5 fold above baseline was considered below the level of quantitation) | − | +++ (400-799 pg/mL) |  | fold increase of IRF3-dependent luciferase activity over background, THP1 ISG ([3]; 5 μM compound (**)): ++** (a 5-9.9 fold increase) |
| O=C(Nc1cc2ccc3scnc3c2s1)c1cc2ccsc2cc1OCCN1CCOCC1 [Example 65, N-{5,12-dithia-3-azatricyclo[7.3.0.0^2,^6]dodeca-1,3,6,8,10-pentaen-11-yl}-6-[2-(morpholin-4-yl)ethoxy]-1-benzothiophene-5-carboxamide] | − (less than 0.5 fold above baseline was considered below the level of quantitation) |  | ≠ (less than 100 pg/mL) |  | fold increase of IRF3-dependent luciferase activity over background, THP1 ISG ([3]; 10 μM compound): + (a 2.4-4.9 fold increase) |
| COc1nc2c(ccc3cc(NC(=O)c4cc5ccsc5cc4OCCCCN4CCOCC4)sc32)s1 [Example 68, N-{4-methoxy-5,12-dithia-3-azatricyclo[7.3.0.0^2,^6]dodeca-1,3,6,8,10-pentaen-11-yl}-6-[4-(morpholin-4-yl)butoxy]-1-benzothiophene-5-carboxamide] | − (less than 0.5 fold above baseline was considered below the level of quantitation) | − |  |  |  |
| Cn1ccc2cc(OCCN3CCOCC3)c(C(=O)Nc3nc4ccc5scnc5c4s3)cc21 [Example 69, N-{3,10-dithia-5,12-diazatricyclo[7.3.0.0^2,^6]dodeca-1,4,6,8,11-pentaen-4-yl}-1-methyl-5-[2-(morpholin-4-yl)ethoxy]-1H-indole-6-carboxamide] | − (less than 0.5 fold above baseline was considered below the level of quantitation) | − |  |  |  |
| 6-[2-(morpholin-4-yl)ethoxy]-N-{4-oxo-5,12-dithia-3-azatricyclo[7.3.0.0^2,^6]dodeca-1,6,8,10-tetraen-11-yl}-1-benzothiophene-5-carboxamide [Example 70] | − (less than 0.5 fold above baseline was considered below the level of quantitation) | − |  |  |  |
| N-{4-methoxy-5,12-dithia-3-azatricyclo[7.3.0.0^2,^6]dodeca-1,3,6,8,10-pentaen-11-yl}-6-[2-(morpholin-4-yl)ethoxy]-1-benzothiophene-5-carboxamide [Example 67] | − (less than 0.5 fold above baseline was considered below the level of quantitation) | − |  |  |  |
| O=C(Nc1nc2ccc3scnc3c2s1)c1cc2ccsc2cc1OCCCCN1CCOCC1 [Example 43, N-{3,10-dithia-5,12-diazatricyclo[7.3.0.0^2,^6]dodeca-1,4,6,8,11-pentaen-4-yl}-6-[4-(morpholin-4-yl)butoxy]-1-benzothiophene-5-carboxamide] |  | − | +++ (400-799 pg/mL) | 10 to 19 |  |
| O=C(Nc1nc2ccc3scnc3c2s1)c1cc2ccccc2cc1OCCN1CCCCC1 [Example 25, N-{3,10-dithia-5,12-diazatricyclo[7.3.0.0^2,^6]dodeca-1,4,6,8,11-pentaen-4-yl}-3-[2-(piperidin-1-yl)ethoxy]naphthalene-2-carboxamide] |  | − | ++ (200-399 pg/mL) | 2.4 to 4.9 |  |
| CCc1nc2c(ccc3nc(NC(=O)c4ccc5ccccc5c4)sc32)s1 [Example 18, N-{11-ethyl-3,10-dithia-5,12-diazatricyclo[7.3.0.0^2,^6]dodeca-1,4,6,8,11-pentaen-4-yl}naphthalene-2-carboxamide] |  | − |  | 20 to 39 | CXCL10 secretion, CT26 ([4]; 20 μM compound (*)): +* (100-199 pg/mL) |
| O=C(Nc1nc2ccc3scnc3c2s1)c1cc2ccccc2cc1OCCN1CC2(COC2)C1 [Example 34, N-{3,10-dithia-5,12-diazatricyclo[7.3.0.0^2,^6]dodeca-1,4,6,8,11-pentaen-4-yl}-3-(2-{2-oxa-6-azaspiro[3.3]heptan-6-yl}ethoxy)naphthalene-2-carboxamide] |  | − |  | 2.4 to 4.9 | CXCL10 secretion, CT26 ([4]; 5 μM compound (**)): +++** (400-799 pg/mL) |
| Cn1c(C(=O)Nc2nc3ccc4scnc4c3s2)cc2ccccc21 [Example 17, N-{3,10-dithia-5,12-diazatricyclo[7.3.0.0^2,^6]dodeca-1,4,6,8,11-pentaen-4-yl}-1-methyl-1H-indole-2-carboxamide] |  | − | ++ (200-399 pg/mL) | 10 to 19 |  |
| COc1nc2c(ccc3nc(NC(=O)c4ccc5ccccc5c4)sc32)s1 [Example 22, N-{11-methoxy-3,10-dithia-5,12-diazatricyclo[7.3.0.0^2,^6]dodeca-1,4,6,8,11-pentaen-4-yl}naphthalene-2-carboxamide] |  | − | ++ (200-399 pg/mL) | 20 to 39 |  |
| O=C(Nc1nc2ccc3scnc3c2s1)c1cc2ccsc2cc1OCCN1CCOCC1 [Example 42, N-{3,10-dithia-5,12-diazatricyclo[7.3.0.0^2,^6]dodeca-1,4,6,8,11-pentaen-4-yl}-6-[2-(morpholin-4-yl)ethoxy]-1-benzothiophene-5-carboxamide] |  | − |  | < 2.4 | CXCL10 secretion, CT26 ([4]; 20 μM compound (*)): +* (100-199 pg/mL) |
| O=C(Nc1nc2ccc3scnc3c2s1)c1cccc([N+](=O)[O-])c1 [Example 9, N-{3,10-dithia-5,12-diazatricyclo [7.3.0.0^2,^6]dodeca-1,4,6,8,11-pentaen-4-yl}-3-nitrobenzamide] |  | − | +++ (400-799 pg/mL) | 2.4 to 4.9 |  |
